The test system of experiment [1] is NIH3T3. Briefly: Inhibition of serum-stimulated growth of NIH3T3 cells after 3 days by SRB assay. In general terms: The SRB assay estimates cell density from bound dye.
Experiment [2] relates to DU-145. Briefly: Growth inhibition of human DU145 cells after 3 days by SRB assay.
Experiment [3] concerns the target Epidermal growth factor receptor (Homo sapiens, UniProt P00533). Briefly: Inhibition of EGFR tyrosine kinase expressed in A431 cells.
The subject of experiment [4] is NIH3T3. Briefly: Inhibition of serum-stimulated growth of NIH3T3 cells transfected with HER14 after 3 days by SRB assay.
Experiment [5] has as its system DU-145. Briefly: Induction of DNA interstand cross links in human DU145 cells assessed as decrease in comet tail moment after irradiation by single cell gel electrophoresis assay. The format is functional, cell-based.
Experiment [6] relates to DU-145. Briefly: Induction of cell cycle arrest in human DU145 cells assessed as accumulation at G1 phase at 10 uM after 24 hrs by flow cytometry. The format is functional, cell-based.
The test system of experiment [7] is DU-145. Briefly: Induction of cell cycle arrest in human DU145 cells assessed as accumulation at mid-S phase at 10 uM after 24 hrs by flow cytometry. It is filed as functional, cell-based. In general terms: In flow cytometry, cells or beads pass a laser one at a time.

Activity calls are given as the source filed them. The rule behind the calls is not given here.

The term IC50 denotes the midpoint of a concentration-inhibition curve. A low value points to higher potency.

Sequence of Epidermal growth factor receptor (P00533 whole entry): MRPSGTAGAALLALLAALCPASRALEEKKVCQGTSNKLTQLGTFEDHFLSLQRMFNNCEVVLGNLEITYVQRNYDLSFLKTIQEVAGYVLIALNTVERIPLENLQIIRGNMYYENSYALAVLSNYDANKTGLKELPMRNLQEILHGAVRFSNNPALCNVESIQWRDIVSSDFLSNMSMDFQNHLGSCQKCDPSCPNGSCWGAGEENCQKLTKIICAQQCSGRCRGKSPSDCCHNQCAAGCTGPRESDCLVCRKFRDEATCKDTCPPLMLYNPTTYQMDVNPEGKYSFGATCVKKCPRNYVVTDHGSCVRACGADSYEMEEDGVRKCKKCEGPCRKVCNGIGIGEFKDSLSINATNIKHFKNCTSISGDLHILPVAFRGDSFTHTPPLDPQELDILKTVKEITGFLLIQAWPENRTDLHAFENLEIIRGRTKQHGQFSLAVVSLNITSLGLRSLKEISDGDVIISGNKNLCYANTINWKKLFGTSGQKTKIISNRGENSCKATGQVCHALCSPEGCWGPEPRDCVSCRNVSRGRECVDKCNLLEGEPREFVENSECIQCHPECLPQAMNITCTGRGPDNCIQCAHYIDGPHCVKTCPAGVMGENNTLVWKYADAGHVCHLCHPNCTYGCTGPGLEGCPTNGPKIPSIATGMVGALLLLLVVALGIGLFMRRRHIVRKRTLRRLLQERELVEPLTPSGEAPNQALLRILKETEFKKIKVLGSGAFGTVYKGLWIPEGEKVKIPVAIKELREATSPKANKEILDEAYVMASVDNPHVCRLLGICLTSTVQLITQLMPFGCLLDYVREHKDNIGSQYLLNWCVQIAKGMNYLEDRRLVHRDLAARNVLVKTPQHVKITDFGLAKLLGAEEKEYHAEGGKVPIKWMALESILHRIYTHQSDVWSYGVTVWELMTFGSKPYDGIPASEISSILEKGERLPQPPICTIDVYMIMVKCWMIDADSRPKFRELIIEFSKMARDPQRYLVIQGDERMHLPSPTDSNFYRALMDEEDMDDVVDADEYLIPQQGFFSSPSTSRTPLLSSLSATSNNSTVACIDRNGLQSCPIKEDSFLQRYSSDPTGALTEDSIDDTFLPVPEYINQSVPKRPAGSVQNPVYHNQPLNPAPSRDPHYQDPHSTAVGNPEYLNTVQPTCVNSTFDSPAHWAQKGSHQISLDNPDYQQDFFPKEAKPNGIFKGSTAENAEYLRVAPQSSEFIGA

For `ClCCN(CCNN=Nc1ccc2ncnc(Nc3cccc(Cl)c3)c2c1)Cc1ccccc1`, the IC50 with NIH3T3 [1] (Mus musculus, NIH3T3, 72 h) amounted to 15.2 µM; in the experiment on DU-145 [2] (Homo sapiens, DU-145, 72 h) it was 10.6 µM; in experiment [3] it was 0.071 µM; with NIH3T3 [4] (Mus musculus, NIH3T3, 72 h), 2.93 µM.

Turning to `COc1ccc(N(CCCl)CCN/N=N/c2ccc3ncnc(Nc4cccc(Cl)c4)c3c2)cc1`, the concentration for half-maximal inhibition (IC50) in the experiment with NIH3T3 [1] (Mus musculus, NIH3T3, 72 h) was found to be 9.07 µM; in the experiment on DU-145 [2] (Homo sapiens, DU-145, 72 h), 7.95 µM; in experiment [3], 3.96 µM; in the experiment on NIH3T3 [4] (Mus musculus, NIH3T3, 72 h) it was 6.22 µM.

In the case of `CN(CCCl)CCN/N=N/c1ccc2ncnc(Nc3cccc(Cl)c3)c2c1`, the IC50 with NIH3T3 [1] (Mus musculus, NIH3T3, 72 h) is 27.2 µM; in the experiment with DU-145 [2] (Homo sapiens, DU-145, 72 h) it was 2.6 µM; in experiment [3], 0.0044 µM; in the experiment with NIH3T3 [4] (Mus musculus, NIH3T3, 72 h), 1.31 µM. Moreover, in the experiment on DU-145 [5], the Activity entry was “Dose-dependent effect”. Moreover, the outcome with DU-145 [6] and in the experiment with DU-145 [7] was Active.

With `CN(C)CCN/N=N/c1ccc2ncnc(Nc3cccc(Cl)c3)c2c1`, the IC50 in the experiment with NIH3T3 [1] (Mus musculus, NIH3T3, 72 h) amounted to 39.5 µM; in the experiment on DU-145 [2] (Homo sapiens, DU-145, 72 h), 37.2 µM; in experiment [3] it was 0.037 µM; in the experiment on NIH3T3 [4] (Mus musculus, NIH3T3, 72 h), 1.67 µM.

As for `Nc1ccc2ncnc(Nc3cccc(Cl)c3)c2c1`, the 50% inhibitory concentration (IC50) in the experiment with NIH3T3 [1] (nih3t3) came out at 38.4 µM; in the experiment with DU-145 [2] (du-145), 34.1 µM; with NIH3T3 [4] (nih3t3), 3.19 µM.

Consider `COc1ccc(N(CCN=NNc2ccc3ncnc(Nc4cccc(Cl)c4)c3c2)CC(C)Cl)cc1` (stereo not given), for which the IC50 was 21.5 µM with NIH3T3 [1] (Mus musculus, NIH3T3, 72 h); 11.4 µM with DU-145 [2] (Homo sapiens, DU-145, 72 h); 0.97 µM in experiment [3]; 5.75 µM with NIH3T3 [4] (Mus musculus, NIH3T3, 72 h).

With `ClCCN(CCNN=Nc1ccc2ncnc(Nc3cccc(Cl)c3)c2c1)c1ccc(Cl)cc1`, the IC50 was found to be 27.6 µM in the experiment on NIH3T3 [1] (Mus musculus, NIH3T3, 72 h); 4.7 µM in the experiment with DU-145 [2] (Homo sapiens, DU-145, 72 h); 2.2 µM in experiment [3]; 12 µM in the experiment with NIH3T3 [4] (Mus musculus, NIH3T3, 72 h).
